Data set [1] deals with male wistar rats. The data set is described as follows: In-vivo toxicity study, single i.v. injection. As to conditions: for visible effects and behaviour after injection: 2 mg/kg single i.v. dose into tail vein, two rats; for survival rate: 2 mg/kg single i.v. dose, monitored 2 days. Also noted: species or system rat. The text has this:
4-6 weeks old male wistar rats (weight range 200-500 g) were used in toxicity experiments. Rats were obtained from Zentrale Tierställe Bern (Department of Clinical Research from University of Bern) and housed 4 per cage. Each experimental group includes two rats. All procedures, care and handling of the animals were reviewed and approved by the Veterinärdienst of Kanton Bern, Schweiz and execute in collaboration with the group of Prof. Hugues Abriel from Department of Clinical Research from University of Bern.
Rats were anesthetized with 4% isoflurane and 1 L/min oxygen in an induction chamber. When the rats were sleeping they were transferred on a clinical drape and anesthetized with 1-2% isoflurane and 0.8 l/min oxygen via a mask. The tail was warmed up with warm water and disinfected with 70% ethanol. The intravenous (i.v.) injections into the tail vein included a single dose of the AMPD of 2 mg/kg rat in 500 μL PBS. Before injection each rat was weighted individually and the exact dosage was determined. All rats, including control groups with no injection and i.v. injection of 500 μL PBS, were monitored for their survival and behavior for two days.
The compounds MSt-112, a 3rd generation AMPD with KL motive, MSt-181 its D-enantiomer analogue, MSt-242, a the 3rd generation with RL motive, and MSt-114 with Tyr instead of Lys in the 3rd generation were used for in vivo experiments with male wistar rats to assess their toxicity. These compounds were selected due to their high potencies and high MHCs values, which are at least 10 times higher than their activities. Each compound (concentration of 2 mg/kg) was applied to two rats by intravenous injection into the tail vein to observe if the AMPDs are well tolerated or may cause adverse effects. The concentration used was approx. 5-10 times higher than the MICs. […] The behaviour of the rats was normal. […] Therefore it seems that rats tolerate AMPDs very well, without visible site effects or even casualties.

Data set [2] concerns Bacillus subtilis (strain BR151). The data set is classed as cell-based. As to conditions: strain BR151. In outline: (§1)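 Broth microdilution MIC in LB; overnight cultures diluted to OD600 0.001 and mixed 1:1 with ⅔-serially diluted samples (stock 1 mg mL^−1 in H2O), 37° C for 18-24 h. MTT (0.1%) added; MIC read by eye as lowest concentration inhibiting visible growth (yellow).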

For data set [3], the system named is Pseudomonas aeruginosa (strain PA01). Nature of the data set: microbe, parasite or virus in culture. The data set is classed as cell-based. As to conditions: strain. In outline:
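P. aeruginosa PAO1 grown overnight in LB, diluted to OD600 0.001 and mixed with ⅔-step peptide dilutions, then incubated at 37 °C for 18–24 h. After MTT staining, the lowest concentration with no visible growth was read by eye as the MIC.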

For data set [4], the system named is Escherichia coli (strain DH5α). The data set is classed as cell-based. As to conditions: DH5α. In outline: as §1
In data set [5] the test system is Staphylococcus aureus (COL, MRSA reference strain). The data set is classed as cell-based. As to conditions: COL, reference strain. On the procedure: Antimicrobial activity was assayed against P. aeruginosa PA01 (WT), P. aeruginosa PT1482 (A-), PT1485 (A-B-), PT1149 (A-B-C-algC), PT331 (Z61) (LPS mutants), P. aeruginosa PEJ2.6, PEJ9.1, ZEM1.A, ZEM9.A (clinical isolates from Université de Genève/Centre Médical Universitaire), Burkholderia cenocepacia (B. ceno), Staphylococcus aureus (S. aureus, MRSA strain) and Acinetobacter baumannii (A. baum) (clinical isolates from Université de Genève/Centre Médical Universitaire). To determine the minimal inhibitory concentration (MIC), microdilution broth method was used. A colony of bacteria was grown in MH-medium overnight at 37° C. The samples were prepared as stock solutions of 8 mg mL^−1 in H2O, diluted to the beginning concentration of 32, 64, 128 or 256 μg/mL in 300 μL MH-medium, added to the first well of 96-well microtiterplate (TPP, untreated) and diluted serially by ½. The concentration of the bacteria was quantified by measuring absorbance at 600 nm and diluted to OD600=0.022 in MH-medium. The sample solutions (150 μL) were mixed with 4 μL diluted bacterial suspension with a final inoculation of about of 5×10^5 CFU. The plates were incubated at 37° C. until satisfactory growth (˜18 h). For each test, two columns of the plate were kept for sterility control (SC, broth only) and growth control (GC, broth with bacterial inoculums, no antibiotics). The minimal inhibitory concentration (MIC) was defined as the lowest concentration of the antimicrobial substance (peptide dendrimer) that inhibited visible growth of the tested bacteria with the unaided eye. For microbiological study Polymyxin was used as references.
Ten of the most promising compounds (FIG. 5) were tested for their efficiency against four clinical isolates of P. aeruginosa (ZEM9.A, ZEM1.A, PEJ2.6, PEJ9.1), one S. aureus (COL, MRSA reference strain) and one A. baumannii strain. For the experiments in Genève the peptide dendrimers and reference compounds (polymyxin) were dissolved in PBS and the assay was carried out in Müller-Hinton (MH) broth with a two-fold dilution.

Converted amounts (≈) assume the structure as drawn. Positions of bridges follow the written chain, without caps; N, C: chain ends. Non-standard residues stand in square brackets, D forms with d. Residues, ends and D or L forms follow the SMILES beside them. Groups on a side chain read outwards from the residue. Chains are numbered I, II in the order given. *: point of attachment. Lauroyl = CCCCCCCCCCCC(=O)*; Hexanoyl = CCCCCC(=O)*

Turning to `CC(C)C[C@H](NC(=O)[C@H](CCCCN)NC(=O)[C@H](CCCCNC(=O)[C@H](CC(C)C)NC(=O)[C@H](CCCCN)NC(=O)[C@H](CCCCNC(=O)[C@H](CC(C)C)NC(=O)[C@H](CCCCN)NC(=O)[C@H](CCCCNC(=O)[C@H](Cc1ccc(O)cc1)NC(=O)[C@@H](N)CCCCN)NC(=O)[C@H](Cc1ccc(O)cc1)NC(=O)[C@@H](N)CCCCN)NC(=O)[C@H](CC(C)C)NC(=O)[C@H](CCCCN)NC(=O)[C@H](CCCCNC(=O)[C@H](Cc1ccc(O)cc1)NC(=O)[C@@H](N)CCCCN)NC(=O)[C@H](Cc1ccc(O)cc1)NC(=O)[C@@H](N)CCCCN)NC(=O)[C@H](CC(C)C)NC(=O)[C@H](CCCCN)NC(=O)[C@H](CCCCNC(=O)[C@H](CC(C)C)NC(=O)[C@H](CCCCN)NC(=O)[C@H](CCCCNC(=O)[C@H](Cc1ccc(O)cc1)NC(=O)[C@@H](N)CCCCN)NC(=O)[C@H](Cc1ccc(O)cc1)NC(=O)[C@@H](N)CCCCN)NC(=O)[C@H](CC(C)C)NC(=O)[C@H](CCCCN)NC(=O)[C@H](CCCCNC(=O)[C@H](Cc1ccc(O)cc1)NC(=O)[C@@H](N)CCCCN)NC(=O)[C@H](Cc1ccc(O)cc1)NC(=O)[C@@H](N)CCCCN)C(N)=O` [MSt-114, (KY)8(KKL)4(KKL)2(KKL)] (I: H-KYK([Tyr-Lys])KLKKLKKL-NH2 / II: H-KYK([Tyr-Lys])KLKKL / III: H-KYK([Tyr-Lys])KL / IV: H-KYK([Tyr-Lys])KL; amide I:6-IV:C, I:9-II:C, II:6-III:C), in data set [1], the “visible effects and behaviour after injection” value is on record as “slightly bluish extremities which subsided after approx. 5 min”; the survival rate worked out at 100%. Further, the “MIC B. subtilis BR151” value in data set [2] is 13 mg/L (≈ 2.63 µM). The “MIC P. aeruginosa PAO1” value in data set [3] came out at 2 mg/L (≈ 0.405 µM).
For `CC(C)C[C@@H](NC(=O)[C@@H](CCCCN)NC(=O)[C@@H](CCCCNC(=O)[C@@H](CC(C)C)NC(=O)[C@@H](CCCCN)NC(=O)[C@@H](CCCCNC(=O)[C@@H](CC(C)C)NC(=O)[C@@H](CCCCN)NC(=O)[C@@H](CCCCNC(=O)[C@@H](CC(C)C)NC(=O)[C@H](N)CCCCN)NC(=O)[C@@H](CC(C)C)NC(=O)[C@H](N)CCCCN)NC(=O)[C@@H](CC(C)C)NC(=O)[C@@H](CCCCN)NC(=O)[C@@H](CCCCNC(=O)[C@@H](CC(C)C)NC(=O)[C@H](N)CCCCN)NC(=O)[C@@H](CC(C)C)NC(=O)[C@H](N)CCCCN)NC(=O)[C@@H](CC(C)C)NC(=O)[C@@H](CCCCN)NC(=O)[C@@H](CCCCNC(=O)[C@@H](CC(C)C)NC(=O)[C@@H](CCCCN)NC(=O)[C@@H](CCCCNC(=O)[C@@H](CC(C)C)NC(=O)[C@H](N)CCCCN)NC(=O)[C@@H](CC(C)C)NC(=O)[C@H](N)CCCCN)NC(=O)[C@@H](CC(C)C)NC(=O)[C@@H](CCCCN)NC(=O)[C@@H](CCCCNC(=O)[C@@H](CC(C)C)NC(=O)[C@H](N)CCCCN)NC(=O)[C@@H](CC(C)C)NC(=O)[C@H](N)CCCCN)C(N)=O` [MSt-181, (kl)8(kkl)4(kkl)2(kkl)] (I: H-[dK][dL][dK]([dL-dK])[dK][dL][dK][dK][dL][dK][dK][dL]-NH2 / II: H-[dK][dL][dK]([dL-dK])[dK][dL][dK][dK][dL] / III: H-[dK][dL][dK]([dL-dK])[dK][dL] / IV: H-[dK][dL][dK]([dL-dK])[dK][dL]; amide I:6-IV:C, I:9-II:C, II:6-III:C), in data set [1], the “visible effects and behaviour after injection” value is given as “slightly bluish extremities which subsided after approx. 5 min”; the survival rate is listed as 100%. Moreover, the “MIC E. coli DH5α” value in data set [4] is 1 mg/L (≈ 0.221 µM). Further, the “MIC B. subtilis BR151” value in data set [2] was 2 mg/L (≈ 0.441 µM). Also, in data set [3], the “MIC P. aeruginosa PAO1” value turned out to be 4 mg/L (≈ 0.882 µM).
For `CCCCCCCCCCCC(=O)NCCCC[C@H](NC(=O)[C@H](CC(C)C)NC(=O)[C@H](CCCCN)NC(=O)[C@H](CCCCNC(=O)[C@H](CC(C)C)NC(=O)[C@H](CCCCN)NC(=O)[C@H](CCCCNC(=O)[C@H](CC(C)C)NC(=O)[C@@H](N)CCCCN)NC(=O)[C@H](CC(C)C)NC(=O)[C@@H](N)CCCCN)NC(=O)[C@H](CC(C)C)NC(=O)[C@H](CCCCN)NC(=O)[C@H](CCCCNC(=O)[C@H](CC(C)C)NC(=O)[C@@H](N)CCCCN)NC(=O)[C@H](CC(C)C)NC(=O)[C@@H](N)CCCCN)C(N)=O` [MSt-263, (KL)4(KKL)2(KKLKC12)] (I: H-KLK([Leu-Lys])KLKKLK(Lauroyl)-NH2 / II: H-KLK([Leu-Lys])KL; amide I:6-II:C), the “MIC S. aureus (COL, MRSA reference strain)” value in data set [5] is “below 20 μg/mL”. In addition, the “MIC E. coli DH5α” value in data set [4] was 1 mg/L (≈ 0.416 µM). In data set [2], the “MIC B. subtilis BR151” value was determined as 2 mg/L (≈ 0.833 µM). In data set [3], the “MIC P. aeruginosa PAO1” value was found to be 1 mg/L (≈ 0.416 µM).
With `CCCCCC(=O)N[C@@H](CCCCN)C(=O)N[C@@H](CC(C)C)C(=O)NCCCC[C@H](NC(=O)[C@H](CC(C)C)NC(=O)[C@H](CCCCN)NC(=O)CCCCC)C(=O)N[C@@H](CCCCN)C(=O)N[C@@H](CC(C)C)C(=O)NCCCC[C@H](NC(=O)[C@H](CC(C)C)NC(=O)[C@H](CCCCN)NC(=O)[C@H](CCCCNC(=O)[C@H](CC(C)C)NC(=O)[C@H](CCCCN)NC(=O)CCCCC)NC(=O)[C@H](CC(C)C)NC(=O)[C@H](CCCCN)NC(=O)CCCCC)C(=O)N[C@@H](CCCCN)C(=O)N[C@@H](CC(C)C)C(N)=O` [MSt-290, (C6KL)4(KKL)2(KKL)] (I: Hexanoyl-KLK([Leu-Lys-Hexanoyl])KLKKL-NH2 / II: Hexanoyl-KLK([Leu-Lys-Hexanoyl])KL; amide I:6-II:C), in data set [4], the “MIC E. coli DH5α” value worked out at 1 mg/L (≈ 0.403 µM). In addition, the “MIC B. subtilis BR151” value in data set [2] is 1 mg/L (≈ 0.403 µM). Further, the “MIC P. aeruginosa PAO1” value in data set [3] is 2 mg/L (≈ 0.805 µM).
